Reference: patent US11311576B2, “Methods of use for CAR T cells” (Seattle Children's Hospital, priority 2018, dated 2022)

Assays:
MDA-MB-231 tumors = experiment: CAR-T therapy with EC17 fixed dose or dose de-escalation in mice bearing MDA-MB-231 tumors; type: in vivo
Source text: The effect of EC17 dose de-escalation was investigated on the anti-tumor activity and the toxicity (body weight changes) of CAR-T therapy. Two different anti-fluorescein scFv were used for the CAR constructions (FIG. 1). The first construct of CAR contains the following domains: antiFL(FITC-E2)scFv-IgG4 hinge (CH2 (L235D, N297Q)-CH3)-CD28 TM-4-1BB-CD3z-T2A-EGFRt. The second construct of CAR contains the following domains: antiFL(FITC-4M5.3)scFv-IgG4 hinge (CH2 (L235D, N297Q)-CH3)-CD28 TM-4-1BB-CD3z-T2A-EGFRt. The nucleic acid sequence and amino acid sequence of the CAR of each construct are shown as SEQ ID NOS:1 to 4. Human T cells were isolated, activated and transduced with a lentiviral vector carrying the appropriate CAR gene. CD4+ T cells with the CAR-modification and CD8+ T cells with the CAR-modification were isolated and cultured separately in vitro for about 7 days. CD4+ CAR-T cells and CD8+ CAR-T cells were mixed at a 1:1 ratio before i.v. administration for animal studies.
The second construct 4M5.3-CAR (antiFL(FITC-4M5.3) scFv-IgG4 hinge (CH2 (L235D, N297Q)-CH3)-CD28 TM-4-1BB-CD3z-T2A-EGFRt) was also evaluated. Mice bearing MDA-MB-231 tumors (150-250 mm^3) were used for in vivo studies to evaluate 4M5.3-CAR-T cells. […]

HOS-FRα tumor = experiment: CRS toxicity and sodium fluorescein rescue in HOS-FRα tumor-bearing mice; type: in vivo; conditions: intravenous ~95 mg/kg on day 13, plasma 6 hours later, 35 million total CAR-T cells
Procedure: All animal care and use were performed according to NIH guidelines and in compliance with protocols approved by the Purdue University Animal Use and Care Committee. Female 4 to 5-week-old NOD/SCID gamma (NSG™) mice (stock number: 005557) were purchased from The Jackson Laboratory (Bar Harbor, Me.). Unless specifically indicated, all animals were maintained on a FA-deficient diet (TestDiet, St. Louis, Mo.) upon arrival and throughout the study. To establish subcutaneous xenografts, MDA-MB-231 and HOS-FRα were implanted in the right flank region at 2.5×10^6 and 1×10^6 cells per animal, respectively. For intravenous xenografts, THP1-FRb cells were inoculated at 5×10^6 cells per animal. Subcutaneous tumors were measured 2-3 times per week with a caliper and calculated using the ellipsoidal formula […]. […] All animal doses (CAR-T cells, EC17, sodium fluorescein) were given intravenously.
Depending on the CAR-T cell dose and how EC17 is administered, tumor-bearing mice receiving FITC-specific CAR-T cells can experience severe CRS and varying degrees of body weight loss. […] On the days immediately following each EC17 dose, animals were scored and rescue agents such as sodium fluorescein, folic acid and leucovorin were used to mitigate CRS toxicity. […]

O=C([O-])c1ccccc1-c1c2ccc(=O)cc-2oc2cc([O-])ccc12.[Na+].[Na+] [sodium fluorescein]
antitumor activity after NaFL rescue (MDA-MB-231 tumors; E2-CAR-T 10 and 20 million cells, EC17 500 nmol/kg SIW, NaFL 6 umol/kg): antitumor activity was maintained
antitumor activity after NaFL rescue (MDA-MB-231 tumors; E2-CAR-T 30 million cells with EC17 dose de-escalation): antitumor activity is maintained
CAR-T cell derived human cytokines after rescue (HOS-FRα tumor): acted very quickly to reduce CAR-T cell derived human cytokines
